# Test results from PubChem BioAssay (NCI).
# “And” between values parts separate entries of the source, which are not always exact repeats. Equal entries are not always repeated.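 48-hour exposure; five concentrations; linearly interpolated endpoints. GI50 marks 50% less growth. The concentration for full growth arrest is given as TGI.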
# Experiments:
# Test in all cases: inhibition of tumour cell growth, NCI panel, 48 h
# [1] = test system: NCI-H23 lung
# [2] = test system: HCT-116 colon
# [3] = test system: HOP-92 NSCLC
# [4] = test system: SK-OV-3 ovarian
# [5] = test system: MALME-3M melanoma
# [6] = test system: IGROV1 ovarian
# [7] = test system: U251 CNS
# [8] = test system: NCI-H226 lung
# [9] = test system: HOP-62 NSCLC
# [10] = test system: OVCAR-4 ovarian
structure (smiles),measurement,setting,value
COCCOCOC(C)(C)[C@H](CCO)O[Si](c1ccccc1)(c1ccccc1)C(C)(C)C,TGI,[1],35.9 µM
same,TGI,[2],14.1 µM
same,TGI,[3],23.6 µM
same,TGI,[4],26.5 µM
same,TGI,[5],30.5 µM
same,TGI,[6],22.9 µM
same,TGI,[7],24.5 µM
O=C1c2ccccc2C(=O)c2c1cc1c(c2[N+](=O)[O-])OCO1,GI50,[8],2.06 µM
same,TGI,[8],7.16 µM
same,GI50,[1],2.4 µM
same,TGI,[1],8.29 µM
same,GI50,[2],0.641 µM
same,TGI,[2],4.44 µM
same,GI50,[3],1.27 µM
same,TGI,[3],3.75 µM
same,GI50,[9],1.74 µM
same,TGI,[9],5.19 µM
same,GI50,[5],2.81 µM
same,TGI,[5],8.9 µM
same,GI50,[10],1.2 µM
same,TGI,[10],4.85 µM
same,GI50,[6],1.21 µM
same,TGI,[6],7.62 µM
same,GI50,[7],2.15 µM
same,TGI,[7],7.72 µM
CC(C)=CC(=O)OC1C2C(C)=CC(O)C(O)C2(C)C2C3(O)OCC24C(CC(=O)OC14)C(C)C3O (stereo not drawn),TGI,[8],0.388 µM
same,TGI,[1],0.387 µM
same,TGI,[2],0.381 µM
same,TGI,[3],0.26 µM
same,TGI,[9],0.683 µM
same,TGI,[5],0.0844 µM
same,TGI,[10],0.749 µM
same,TGI,[6],0.706 µM
same,TGI,[7],0.248 µM
OC1COC(OCc2ccccc2)C(O)C1O (stereo not drawn),TGI,[8],> 100 µM
same,TGI,[1],> 100 µM
same,TGI,[2],> 100 µM
same,TGI,[3],> 100 µM
same,TGI,[9],> 100 µM
same,TGI,[4],> 100 µM
same,TGI,[5],> 100 µM
same,TGI,[10],> 100 µM
same,TGI,[6],> 100 µM
same,TGI,[7],> 100 µM
CC(C)=CCC/C(C)=C/CCC1(C)C=Cc2c(c3ccccc3oc2=O)O1 (stereo not drawn),TGI,[8],30 µM
same,TGI,[1],28.9 µM
same,TGI,[2],28 µM
same,TGI,[3],25 µM
same,TGI,[9],17.8 µM
same,TGI,[4],50.8 µM
same,TGI,[5],43.7 µM
same,TGI,[10],28.4 µM
same,TGI,[6],30.8 µM
same,TGI,[7],28.8 µM
C/C(=N\NC(=S)Nc1ccc([N+](=O)[O-])cc1)c1nc2ncccc2[nH]1,TGI,[8],1.87 µM
same,TGI,[1],4.14 µM
same,TGI,[2],6.12 µM
same,TGI,[3],18 µM
same,TGI,[9],4.33 µM
same,TGI,[4],14.7 µM
same,TGI,[5],18.5 µM
same,TGI,[10],4.21 µM
same,TGI,[6],4.75 µM
same,TGI,[7],1.84 µM
Cc1cccc(CNc2ncnc3[nH]ncc23)c1,TGI,[8],> 100 µM
same,TGI,[1],> 100 µM
same,TGI,[2],> 100 µM
same,TGI,[3],> 100 µM
same,TGI,[9],> 100 µM
same,TGI,[4],> 100 µM
same,TGI,[5],> 100 µM
same,TGI,[10],> 100 µM
same,TGI,[6],> 100 µM
same,TGI,[7],> 100 µM
COc1cc(/C=C/C2=C(C#N)C(=O)OC2(C)C)ccc1O,TGI,[8],> 100 µM
same,TGI,[1],> 100 µM
same,TGI,[2],> 100 µM
same,TGI,[3],> 100 µM
same,TGI,[9],> 100 µM
same,TGI,[4],> 100 µM
same,TGI,[5],> 100 µM
same,TGI,[6],> 100 µM
same,TGI,[7],31.7 µM
CCCCCCCCCCCCC(O)C(=O)O (stereo not drawn),TGI,[1],> 100 µM
same,TGI,[2],> 100 µM
same,TGI,[3],> 100 µM
same,TGI,[9],> 100 µM
same,TGI,[4],> 100 µM
same,TGI,[5],> 100 µM
same,TGI,[10],> 100 µM
same,TGI,[6],> 100 µM
same,TGI,[7],> 100 µM
O=C(O)CCCc1ccccc1,GI50,[8],253 µM and > 1000 µM
same,TGI,[8],917 µM and > 1000 µM
same,GI50,[1],377 µM and > 1000 µM
same,TGI,[1],> 1000 µM
same,GI50,[2],> 1000 µM
same,TGI,[2],> 1000 µM
same,GI50,[3],> 1000 µM
same,TGI,[3],363 µM and > 1000 µM
same,GI50,[9],235 µM and > 1000 µM
same,TGI,[9],> 1000 µM
same,GI50,[4],522 µM and > 1000 µM
same,TGI,[4],> 1000 µM
same,TGI,[5],121 µM and > 1000 µM
same,TGI,[10],184 µM and > 1000 µM
same,GI50,[6],412 µM and > 1000 µM
same,TGI,[6],> 1000 µM
same,GI50,[7],292 µM and > 1000 µM
same,TGI,[7],> 1000 µM
C/C(N=NS(=O)(=O)c1ccc(C)cc1)=C1\C=CC=CN1O,TGI,[1],> 100 µM
same,TGI,[2],> 100 µM
same,TGI,[3],> 100 µM
same,TGI,[9],> 100 µM
same,TGI,[4],> 100 µM
same,TGI,[10],> 100 µM
same,TGI,[6],> 100 µM
same,TGI,[7],> 100 µM
COc1cc(C(=O)C2CC3(CCC2(O)c2cc(OC)c(OC)c(OC)c2)CC(=O)Nc2ccccc2C3=O)cc(OC)c1OC (stereo not drawn),TGI,[8],> 100 µM
same,TGI,[1],> 100 µM
same,TGI,[2],> 100 µM
same,TGI,[3],> 100 µM
same,TGI,[9],> 100 µM
same,TGI,[4],> 100 µM
same,TGI,[5],> 100 µM
same,TGI,[10],57.5 µM
same,TGI,[6],> 100 µM
same,TGI,[7],> 100 µM
Cc1cn(C2CC(O)C(Cn3nncc3Cn3ncc(=O)[nH]c3=O)O2)c(=O)[nH]c1=O (stereo not drawn),TGI,[8],> 100 µM
same,TGI,[1],> 100 µM
same,TGI,[2],> 100 µM
same,TGI,[3],> 100 µM
same,TGI,[9],> 100 µM
same,TGI,[4],> 100 µM
same,TGI,[5],> 100 µM
same,TGI,[10],> 100 µM
same,TGI,[6],> 100 µM
same,TGI,[7],> 100 µM
c1ccc2cc3c(cc2c1)OP1(Oc2cccc4cccnc24)(O3)Oc2cc3ccccc3cc2O1,TGI,[8],44.5 µM
same,TGI,[1],16.9 µM
same,TGI,[2],> 100 µM
same,TGI,[3],76.3 µM
same,TGI,[9],> 73.3 µM
same,TGI,[4],> 96.6 µM
same,TGI,[5],> 76.8 µM
same,TGI,[10],11.8 µM
same,TGI,[6],> 100 µM
same,TGI,[7],> 100 µM
Cc1c(C2=NN=C(N=Nc3c(O)cccc3O)/C2=C/c2ccccc2)c(=O)n(-c2ccccc2)n1C,TGI,[8],> 100 µM
same,TGI,[1],> 100 µM
same,TGI,[2],> 100 µM
same,TGI,[3],> 100 µM
same,TGI,[9],> 100 µM
same,TGI,[4],> 100 µM
same,TGI,[5],> 100 µM
same,TGI,[10],> 100 µM
same,TGI,[6],> 100 µM
same,TGI,[7],> 100 µM
CC1SC(c2ccc(Cl)cc2)N(CCc2cccs2)C1=O (stereo not drawn),GI50,[8],1.5 µM
same,TGI,[8],3.26 µM
same,GI50,[1],1.48 µM
same,TGI,[1],3.85 µM
same,GI50,[2],1.09 µM
same,TGI,[2],2.28 µM
same,GI50,[3],0.855 µM
same,TGI,[3],2.2 µM
same,GI50,[9],1.61 µM
same,TGI,[9],3.16 µM
same,GI50,[4],2.05 µM
same,TGI,[4],5.79 µM
same,GI50,[5],2.12 µM
same,TGI,[5],4.05 µM
same,GI50,[10],1.19 µM
same,TGI,[10],2.44 µM
same,GI50,[6],1.8 µM
same,TGI,[6],5.77 µM
same,GI50,[7],1.63 µM
same,TGI,[7],3.18 µM
